# From ChEMBL document CHEMBL2074135, “Recognition of L-amino acid ester compounds by rat peptide transporters PEPT1 and PEPT2” (J Pharmacol Exp Ther, 1999)
# B1: Solute carrier family 15 member 1 (Rattus norvegicus), P51574 (protein)
# chain: MGMSKSRGCFGYPLSIFFIVVNEFCERFSYYGMRALLVLYFRNFLGWDDDLSTAIYHTFVALCYLTPILGALIADSWLGKFKTIVSLSIVYTIGQAVISVSSINDLTDHDHDGSPNNLPLHVALSMIGLALIALGTGGIKPCVSAFGGDQFEEGQEKQRNRFFSIFYLAINAGSLLSTIITPILRVQQCGIHSQQACYPLAFGVPAALMAVALIVFVLGSGMYKKFQPQGNIMGKVAKCIRFAIKNRFRHRSKAFPKRNHWLDWAKEKYDERLISQIKIMTKVMFLYIPLPMFWALFDQQGSRWTLQATTMTGKIGTIEIQPDQMQTVNAILIVIMVPIVDAVVYPLIAKCGFNFTSLKKMTVGMFLASMAFVVAAIVQVEIDKTLPVFPSGNQVQIKVLNIGNNDMAVYFPGKNVTVAQMSQTDTFMTFDVDQLTSINVSSPGSPGVTTVAHEFEPGHRHTLLVWGPNLYRVVKDGLNQKPEKGENGIRFVSTLNEMITIKMSGKVYENVTSHSASNYQFFPSGQKDYTINTTEIAPNCSSDFKSSNLDFGSAYTYVIRSRASDGCLEVKEFEDIPPNTVNMALQIPQYFLLTCGEVVFSVTGLEFSYSQAPSNMKSVLQAGWLLTVAIGNIIVLIVAEAGHFDKQWAEYVLFASLLLVVCIIFAIMARFYTYINPAEIEAQFDEDEKKKGVGKENPYSSLEPVSQTNM
# B2: Solute carrier family 15 member 2 (Rattus norvegicus), Q63424 (protein)
# chain: MNPFQKNESKETLFSPVSTEEMLPRPPSPPKKSPPKIFGSSYPVSIAFIVVNEFCERFSYYGMKAVLTLYFLYFLHWNEDTSTSVYHAFSSLCYFTPILGAAIADSWLGKFKTIIYLSLVYVLGHVFKSLGAIPILGGKMLHTILSLVGLSLIALGTGGIKPCVAAFGGDQFEEEHAEARTRYFSVFYLAINAGSLISTFITPMLRGDVKCFGQDCYALAFGVPGLLMVLALVVFAMGSKMYRKPPPEGNIVAQVIKCIWFALCNRFRNRSGDLPKRQHWLDWAAEKYPKHLIADVKALTRVLFLYIPLPMFWALLDQQGSRWTLQANKMNGDLGFFVLQPDQMQVLNPFLVLIFIPLFDLVIYRLISKCRINFSSLRKMAVGMILACLAFAVAALVETKINGMIHPQPASQEIFLQVLNLADGDVKVTVLGSRNNSLLVESVSSFQNTTHYSKLHLEAKSQDLHFHLKYNSLSVHNDHSVEEKNCYQLLIHQDGESISSMLVKDTGIKPANGMAAIRFINTLHKDLNISLDTDAPLSVGKDYGVSAYRTVLRGKYPAVHCETEDKVFSLDLGQLDFGTTYLFVITNITSQGLQAWKAEDIPVNKLSIAWQLPQYVLVTAAEVMFSVTGLEFSYSQAPSSMKSVLQAAWLLTVAVGNIIVLVVAQFSGLAQWAEFVLFSCLLLVVCLIFSVMAYYYVPLKSEDTREATDKQIPAVQGNMINLETKNTRL
# Experiments:
# Format in all cases: functional, cell-based
# [1] = biological target: T1, Solute carrier family 15 member 2 (Rattus norvegicus) (UniProt Q63424); assay: TP_TRANSPORTER: inhibition of Gly-Sar uptake (Gly-Sar: 20 uM, Gly-OMe: 10000 uM) in PEPT2-expressing LLC-PK1 cells
# T1 sequence (whole entry): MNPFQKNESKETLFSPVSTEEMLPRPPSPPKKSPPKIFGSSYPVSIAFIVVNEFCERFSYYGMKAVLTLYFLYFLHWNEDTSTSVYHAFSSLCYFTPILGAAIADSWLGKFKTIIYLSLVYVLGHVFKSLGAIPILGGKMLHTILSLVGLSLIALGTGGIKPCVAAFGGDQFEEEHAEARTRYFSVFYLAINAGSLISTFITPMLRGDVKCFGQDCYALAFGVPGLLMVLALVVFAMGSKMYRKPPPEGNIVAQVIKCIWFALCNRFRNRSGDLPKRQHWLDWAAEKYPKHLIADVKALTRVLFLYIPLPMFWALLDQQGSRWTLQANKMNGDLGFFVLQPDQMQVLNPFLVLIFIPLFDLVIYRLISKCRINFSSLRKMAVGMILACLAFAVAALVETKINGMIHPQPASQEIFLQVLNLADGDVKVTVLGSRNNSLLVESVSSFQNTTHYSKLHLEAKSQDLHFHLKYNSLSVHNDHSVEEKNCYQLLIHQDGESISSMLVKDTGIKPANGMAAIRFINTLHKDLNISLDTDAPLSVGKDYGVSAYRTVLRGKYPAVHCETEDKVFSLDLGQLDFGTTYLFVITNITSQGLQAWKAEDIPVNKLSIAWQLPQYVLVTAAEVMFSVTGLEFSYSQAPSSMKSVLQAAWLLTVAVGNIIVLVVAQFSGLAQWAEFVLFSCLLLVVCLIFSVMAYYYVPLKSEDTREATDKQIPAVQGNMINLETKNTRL
# [2] = biological target: T2, Solute carrier family 15 member 1 (Rattus norvegicus) (UniProt P51574); assay: TP_TRANSPORTER: inhibition of Gly-Sar uptake (Gly-Sar: 20 uM, Gly-OMe: 10000 uM) in PEPT1-expressing LLC-PK1 cells
# T2 sequence (whole entry): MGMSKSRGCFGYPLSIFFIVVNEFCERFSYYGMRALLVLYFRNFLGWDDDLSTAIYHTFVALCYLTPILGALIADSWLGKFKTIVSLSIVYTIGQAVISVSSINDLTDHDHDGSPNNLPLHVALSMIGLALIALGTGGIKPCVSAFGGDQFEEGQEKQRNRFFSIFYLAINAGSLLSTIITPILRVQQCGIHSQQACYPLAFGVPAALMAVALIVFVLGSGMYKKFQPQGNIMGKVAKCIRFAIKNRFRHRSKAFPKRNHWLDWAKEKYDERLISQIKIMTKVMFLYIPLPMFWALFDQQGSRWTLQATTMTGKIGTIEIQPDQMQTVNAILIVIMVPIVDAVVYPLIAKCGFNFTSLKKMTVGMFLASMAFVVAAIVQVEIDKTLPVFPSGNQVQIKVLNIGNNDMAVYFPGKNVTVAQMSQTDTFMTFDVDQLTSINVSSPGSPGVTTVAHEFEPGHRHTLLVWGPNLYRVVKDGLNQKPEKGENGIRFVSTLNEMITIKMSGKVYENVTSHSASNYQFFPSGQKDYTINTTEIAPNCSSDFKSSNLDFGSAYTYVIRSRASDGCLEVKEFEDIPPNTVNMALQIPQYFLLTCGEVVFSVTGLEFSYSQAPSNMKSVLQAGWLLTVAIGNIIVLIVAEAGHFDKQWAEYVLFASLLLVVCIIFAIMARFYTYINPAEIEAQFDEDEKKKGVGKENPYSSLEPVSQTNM
# [3] = biological target: T2, Solute carrier family 15 member 1 (Rattus norvegicus); assay: TP_TRANSPORTER: inhibition of Gly-Sar uptake (Gly-Sar: 20 uM, Ser-OMe: 10000 uM) in PEPT1-expressing LLC-PK1 cells
# [4] = biological target: T2, Solute carrier family 15 member 1 (Rattus norvegicus); assay: TP_TRANSPORTER: inhibition of Gly-Sar uptake (Gly-Sar: 20 uM, Val-OEt: 10000 uM) in PEPT1-expressing LLC-PK1 cells
# [5] = biological target: T1, Solute carrier family 15 member 2 (Rattus norvegicus); assay: TP_TRANSPORTER: inhibition of Gly-Sar uptake (Gly-Sar: 20 uM, Val-OEt: 10000 uM) in PEPT2-expressing LLC-PK1 cells
# [6] = biological target: T3, Solute carrier family 15 member 1 (Rattus norvegicus, UniProt P51574); assay: TP_TRANSPORTER: inhibition of Gly-Sar uptake in PEPT1-expressing LLC-PK1 cells
# T3 sequence (P51574 whole entry): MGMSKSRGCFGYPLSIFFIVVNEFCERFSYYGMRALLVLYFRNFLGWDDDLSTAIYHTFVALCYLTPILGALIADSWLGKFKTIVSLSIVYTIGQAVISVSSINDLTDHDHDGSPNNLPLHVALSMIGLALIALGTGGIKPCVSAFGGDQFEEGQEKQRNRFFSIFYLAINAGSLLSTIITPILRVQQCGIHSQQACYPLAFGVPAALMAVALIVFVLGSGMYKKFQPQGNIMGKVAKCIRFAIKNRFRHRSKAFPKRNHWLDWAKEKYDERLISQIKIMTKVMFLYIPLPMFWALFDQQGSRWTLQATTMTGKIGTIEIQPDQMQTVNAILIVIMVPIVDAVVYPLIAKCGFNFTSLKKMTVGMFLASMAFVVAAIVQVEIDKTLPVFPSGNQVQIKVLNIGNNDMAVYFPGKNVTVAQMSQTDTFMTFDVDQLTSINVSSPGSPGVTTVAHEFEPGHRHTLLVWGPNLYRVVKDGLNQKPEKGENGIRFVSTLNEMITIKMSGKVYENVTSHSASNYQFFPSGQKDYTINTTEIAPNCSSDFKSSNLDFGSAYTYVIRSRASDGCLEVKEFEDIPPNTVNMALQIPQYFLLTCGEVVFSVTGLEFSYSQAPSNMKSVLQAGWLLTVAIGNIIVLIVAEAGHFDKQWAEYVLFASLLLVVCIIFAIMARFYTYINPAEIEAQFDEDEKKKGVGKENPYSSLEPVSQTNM
# [7] = biological target: T4, Solute carrier family 15 member 2 (Rattus norvegicus, UniProt Q63424); assay: TP_TRANSPORTER: inhibition of Gly-Sar uptake in PEPT2-expressing LLC-PK1 cells
# T4 sequence (Q63424 whole entry): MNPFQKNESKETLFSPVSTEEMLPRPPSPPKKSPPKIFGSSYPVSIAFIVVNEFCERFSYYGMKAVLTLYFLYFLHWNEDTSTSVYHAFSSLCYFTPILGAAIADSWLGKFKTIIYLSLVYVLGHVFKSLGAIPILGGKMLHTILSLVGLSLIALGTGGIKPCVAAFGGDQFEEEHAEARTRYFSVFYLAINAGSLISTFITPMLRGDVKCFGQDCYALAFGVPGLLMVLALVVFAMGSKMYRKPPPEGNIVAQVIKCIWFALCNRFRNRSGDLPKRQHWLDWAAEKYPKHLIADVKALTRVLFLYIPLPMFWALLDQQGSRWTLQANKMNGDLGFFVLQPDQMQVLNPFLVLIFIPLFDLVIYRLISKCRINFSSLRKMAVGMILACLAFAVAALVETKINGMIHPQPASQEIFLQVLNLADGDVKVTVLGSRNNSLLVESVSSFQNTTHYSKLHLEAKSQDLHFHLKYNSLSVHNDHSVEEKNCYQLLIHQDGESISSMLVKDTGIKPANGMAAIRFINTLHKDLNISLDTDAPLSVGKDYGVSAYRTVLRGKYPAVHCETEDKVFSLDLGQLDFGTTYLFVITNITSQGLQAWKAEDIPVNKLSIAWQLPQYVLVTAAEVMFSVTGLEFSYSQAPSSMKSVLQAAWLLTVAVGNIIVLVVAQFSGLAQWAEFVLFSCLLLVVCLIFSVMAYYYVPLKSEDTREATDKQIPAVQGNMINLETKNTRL
# [8] = biological target: T1, Solute carrier family 15 member 2 (Rattus norvegicus); assay: TP_TRANSPORTER: inhibition of Gly-Sar uptake (Gly-Sar: 20 uM, Leu-OMe: 10000 uM) in PEPT2-expressing LLC-PK1 cells
# [9] = biological target: T2, Solute carrier family 15 member 1 (Rattus norvegicus); assay: TP_TRANSPORTER: inhibition of Gly-Sar uptake (Gly-Sar: 20 uM, Leu-OMe: 10000 uM) in PEPT1-expressing LLC-PK1 cells
# [10] = substrate: CN(CC(=O)O)C(=O)CN; assay: TP_TRANSPORTER: uptake in PEPT1-expressing LLC-PK1 cells
# [11] = substrate: CN(CC(=O)O)C(=O)CN; assay: TP_TRANSPORTER: uptake in PEPT2-expressing LLC-PK1 cells
molecule,measurement,setting,value
COC(=O)CN,Activity,[1],inhibitor [+]
same,Activity,[2],inhibitor [+]
COC(=O)[C@@H](N)CO,Activity,[3],inhibitor [+]
CCOC(=O)[C@@H](N)C(C)C,Activity,[4],inhibitor [+]
same,Activity,[5],inhibitor [+]
COC(=O)[C@@H](N)C(C)C,Ki,[6],3.6 mM
same,Ki,[7],0.83 mM
COC(=O)[C@@H](N)CC(C)C,Activity,[8],inhibitor [+]
same,Activity,[9],inhibitor [+]
B1,Km,[10],1900 µM
B2,Km,[11],90 µM
